Patent publication US10344025B2, “GLS1 inhibitors for treating disease” (Board of Regents, The University of Texas System, priority 2014, dated 2019)

How the values were obtained:
A549 cells = experiment: Proliferation Assay (A549 viability, Cell Titer Fluor, 72 hours); type: cell-based; conditions: Homo sapiens, A549, 72 h
Outline: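 A549 cells seeded at 1000 cells/well, rested 24 h, then exposed to compound in 0.5% DMSO for 72 h at 37 °C. Viability read by Cell Titer Fluor fluorescence; IC50 from four-parameter logistic fit.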

[1] = molecular target: purified recombinant human GAC (GLS1) (Homo sapiens (Human), UniProt O94925); experiment: GLS1 Enzymatic Activity Assay (dual-coupled enzymatic assay, resorufin/Amplex UltraRed readout); type: biochemical;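 also: glutamate from GAC coupled via glutamate oxidase and peroxidase to resorufin, read as fluorescence (ex 530, em 590 nm) kinetically or at 20 min, four-parameter logistic IC50 fit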
Chain of purified recombinant human GAC (GLS1) (O94925 other isoform, or with tags, fused parts or gaps): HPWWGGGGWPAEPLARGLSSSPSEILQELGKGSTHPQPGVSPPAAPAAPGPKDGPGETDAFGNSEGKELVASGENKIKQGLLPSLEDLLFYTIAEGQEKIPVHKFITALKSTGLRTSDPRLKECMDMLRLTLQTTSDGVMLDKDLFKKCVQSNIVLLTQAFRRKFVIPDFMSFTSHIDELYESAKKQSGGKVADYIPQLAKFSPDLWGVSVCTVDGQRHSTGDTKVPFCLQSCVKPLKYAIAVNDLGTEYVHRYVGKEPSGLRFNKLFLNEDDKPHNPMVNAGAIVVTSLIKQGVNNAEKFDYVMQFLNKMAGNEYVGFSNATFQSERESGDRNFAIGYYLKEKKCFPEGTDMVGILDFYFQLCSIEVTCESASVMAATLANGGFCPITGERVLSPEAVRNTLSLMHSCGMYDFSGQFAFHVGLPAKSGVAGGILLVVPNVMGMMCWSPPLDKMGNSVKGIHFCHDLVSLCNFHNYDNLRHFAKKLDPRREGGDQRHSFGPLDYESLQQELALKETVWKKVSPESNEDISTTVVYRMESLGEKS

Row | SMILES | EC50 (A549 cells) [nM] | IC50 [1] [nM]
1 | Cc1ccc(CNC(=O)c2cn(CCCCn3cc(NC(=O)Cc4cccc(OC(F)(F)F)c4)nn3)nn2)cn1 [Example 299, N-[(6-methylpyridin-3-yl)methyl]-1-[4-(4-{2-[3-(trifluoromethoxy)phenyl]acetamido}-1H-1,2,3-triazol-1-yl)butyl]-1H-1,2,3-triazole-4-carboxamide] | < 100 | < 100
2 | CC(=O)Nc1ccc(CCCCc2nnc(C(=O)NCc3cc(OC(F)(F)F)ccc3F)s2)nn1 [Example 600, 5-(4-(6-acetamidopyridazin-3-yl)butyl)-N-(2-fluoro-5-(trifluoromethoxy)benzyl)-1,3,4-thiadiazole-2-carboxamide] | < 100 | < 100
3 | O=C(Cc1cccc(OC(F)(F)F)c1)Nc1cn(CC(F)CCn2cc(C(=O)NCc3cccc(C(F)(F)F)n3)nn2)nn1 (stereo not drawn) [Example 487, 1-[3-fluoro-4-(4-{2-[3-(trifluoromethoxy)phenyl]acetamido}-1H-1,2,3-triazol-1-yl)butyl]-N-{[6-(trifluoromethyl)pyridin-2-yl]methyl}-1H-1,2,3-triazole-4-carboxamide] | < 100 | < 100
4 | O=C(Cc1cccc(OC(F)(F)F)c1)Nc1cn(CCC(F)Cn2cc(C(=O)NCc3cc(C(F)(F)F)ccn3)nn2)nn1 (stereo not drawn) [Example 407, 1-[2-fluoro-4-(4-{2-[3-(trifluoromethoxy)phenyl]acetamido}-1H-1,2,3-triazol-1-yl)butyl]-N-{[4-(trifluoromethyl)pyridin-2-yl]methyl}-1H-1,2,3-triazole-4-carboxamide] | < 100 | < 100
5 | O=C(NCc1cc(C(F)(F)F)ccn1)c1cn(CCCCn2cc(C(=O)NCc3cc(C(F)(F)F)ccn3)nn2)nn1 [Example 158, N-{[4-(trifluoromethyl)pyridin-2-yl]methyl}-1-{4-[4-({[4-(trifluoromethyl)pyridin-2-yl]methyl}carbamoyl)-1H-1,2,3-triazol-1-yl]butyl}-1H-1,2,3-triazole-4-carboxamide] | < 100 | < 100
6 | COCCNC(=O)c1cn(CC(F)CCc2nnc(NC(=O)Cc3cccc(OC(F)(F)F)c3)s2)nn1 (stereo not drawn) [Example 532, 1-[2-fluoro-4-(5-{2-[3-(trifluoromethoxy)phenyl]acetamido}-1,3,4-thiadiazol-2-yl)butyl]-N-(2-methoxyethyl)-1H-1,2,3-triazole-4-carboxamide] | 100 to 500 | < 100
7 | O=C(NCCc1ccccc1)c1nnc(CCCCc2ccc(NC(=O)[C@@H](O)c3ccccc3)nn2)s1 [Example 25, 5-(4-{6-[(2S)-2-hydroxy-2-phenylacetamido]pyridazin-3-yl}butyl)-N-(2-phenylethyl)-1,3,4-thiadiazole-2-carboxamide] | 100 to 500 | < 100
8 | O=C(NCc1cc(C(F)(F)F)ccn1)c1cn(CCCCn2cc(C(=O)NCC3CC3)nn2)nn1 [Example 89] | 500 to 5000 | 500 to 5000
9 | O=C(CC1CCCC1)Nc1cn(CCCCn2cc(C(=O)NCc3cccnc3)nn2)nn1 [Example 309, 1-{4-[4-(2-cyclopentylacetamido)-1H-1,2,3-triazol-1-yl]butyl}-N-(pyridin-3-ylmethyl)-1H-1,2,3-triazole-4-carboxamide] | 100 to 500 | 100 to 500
10 | O=C(Cc1ccccc1)Nc1nnc(CCCCn2cc(C(=O)NCCc3ccccc3)nn2)s1 [Example 13, 1-{4-[5-(2-phenylacetamido)-1,3,4-thiadiazol-2-yl]butyl}-N-(2-phenylethyl)-1H-1,2,3-triazole-4-carboxamide] | 500 to 5000 | < 100
11 | O=C(NCc1cncc(C(F)(F)F)c1)c1cn(CC(F)CCc2nnc(C(=O)NCc3cccc(C(F)(F)F)n3)s2)nn1 (stereo not drawn) [Example 490, 5-{3-fluoro-4-[4-({[5-(trifluoromethyl)pyridin-3-yl]methyl}carbamoyl)-1H-1,2,3-triazol-1-yl]butyl}-N-{[6-(trifluoromethyl)pyridin-2-yl]methyl}-1,3,4-thiadiazole-2-carboxamide] | < 100 | < 100
12 | Cc1ccc(CNC(=O)c2cn(CCCCc3nnc(C(=O)NCC4CC4)s3)nn2)cn1 [Example 63, N-(cyclopropylmethyl)-5-[4-(4-{[(6-methylpyridin-3-yl)methyl]carbamoyl}-1H-1,2,3-triazol-1-yl)butyl]-1,3,4-thiadiazole-2-carboxamide] | 500 to 5000 | 100 to 500
13 | CNC(=O)c1cn(C[C@H](F)CCc2nnc(NC(=O)Cc3cccc(OC(F)(F)F)c3)s2)nn1 [Example 240, (R)-1-(2-fluoro-4-(5-(2-(3-(trifluoromethoxy)phenyl)acetamido)-1,3,4-thiadiazol-2-yl)butyl)-N-methyl-1H-1,2,3-triazole-4-carboxamide] | < 100 | < 100
14 | O=C(Cc1cccc(OC(F)(F)F)c1)Nc1nnc(CCC(F)Cn2cc(C(=O)NCc3cc(C(F)(F)F)ccn3)nn2)s1 (stereo not drawn) [Example 495, 1-[2-fluoro-4-(5-{2-[3-(trifluoromethoxy)phenyl]acetamido}-1,3,4-thiadiazol-2-yl)butyl]-N-{[4-(trifluoromethyl)pyridin-2-yl]methyl}-1H-1,2,3-triazole-4-carboxamide] | < 100 | < 100
15 | O=C(Cc1ccccn1)Nc1nnc(CC[C@H](F)Cn2cc(C(=O)NCc3cc(OC(F)(F)F)ccc3F)nn2)s1 [Example 197, (S)-1-(2-fluoro-4-(5-(2-(pyridin-2-yl)acetamido)-1,3,4-thiadiazol-2-yl)butyl)-N-(2-fluoro-5-(trifluoromethoxy)benzyl)-1H-1,2,3-triazole-4-carboxamide] | < 100 | < 100
16 | CNC(=O)c1cn(CC(F)CCc2nnc(C(=O)NCc3cccc(OC(F)(F)F)c3)s2)nn1 (stereo not drawn) [Example 561, 5-{3-fluoro-4-[4-(methylcarbamoyl)-1H-1,2,3-triazol-1-yl]butyl}-N-{[3-(trifluoromethoxy)phenyl]methyl}-1,3,4-thiadiazole-2-carboxamide] | 100 to 500 | < 100
17 | Cc1ccc(CNC(=O)c2cn(CCCCn3cc(NC(=O)Cc4ccc(C)nc4)nn3)nn2)cn1 [Example 316, 1-(4-{4-[2-(6-methylpyridin-3-yl)acetamido]-1H-1,2,3-triazol-1-yl}butyl)-N-[(6-methylpyridin-3-yl)methyl]-1H-1,2,3-triazole-4-carboxamide] | 500 to 5000 | < 100
18 | O=C(Cc1cccc(OC(F)(F)F)c1)Nc1nnc(CCCCn2cc(C(=O)N[C@H](CO)c3ccccc3)nn2)s1 [Example 23, N-[(1S)-2-hydroxy-1-phenylethyl]-1-[4-(5-{2-[3-(trifluoromethoxy)phenyl]acetamido}-1,3,4-thiadiazol-2-yl)butyl]-1H-1,2,3-triazole-4-carboxamide] | 100 to 500 | < 100
19 | NC(=O)c1cn(CCCCc2ccc(NC(=O)Cc3cccc(OC(F)(F)F)c3)nn2)nn1 [Example 596, 1-(4-(6-(2-(3-(trifluoromethoxy)phenyl)acetamido)pyridazin-3-yl)butyl)-1H-1,2,3-triazole-4-carboxamide] | 100 to 500 | < 100
20 | CNC(=O)c1cn(CC(F)CCc2nnc(NC(=O)Cc3cc(C(F)(F)F)ccn3)s2)nn1 (stereo not drawn) [Example 226, 1-(2-fluoro-4-(5-(2-(4-(trifluoromethyl)pyridin-2-yl)acetamido)-1,3,4-thiadiazol-2-yl)butyl)-N-methyl-1H-1,2,3-triazole-4-carboxamide] | < 100 | < 100
21 | Cc1ccc(CNC(=O)c2cn(CC(F)CCn3cc(C(=O)NCc4cc(OC(F)(F)F)ccc4F)nn3)nn2)cn1 (stereo not drawn) [Example 368, 1-{2-fluoro-4-[4-({[2-fluoro-5-(trifluoromethoxy)phenyl]methyl}carbamoyl)-1H-1,2,3-triazol-1-yl]butyl}-N-[(6-methylpyridin-3-yl)methyl]-1H-1,2,3-triazole-4-carboxamide] | < 100 | < 100
22 | CNC(=O)c1cn(CCCCc2ccc(NC(=O)Cc3cc(C(C)C(F)(F)F)ccn3)nn2)nn1 (stereo not drawn) [Example 258, N-methyl-1-(4-(6-(2-(4-(1,1,1-trifluoropropan-2-yl)pyridin-2-yl)acetamido)pyridazin-3-yl)butyl)-1H-1,2,3-triazole-4-carboxamide] | < 100 | < 100
23 | CNC(=O)c1cn(CC(F)CCc2nnc(NC(=O)Cc3cc(-c4cccc(OC(F)(F)F)c4)ccn3)s2)nn1 (stereo not drawn) [Example 397, 1-(2-fluoro-4-(5-(2-(4-(3-(trifluoromethoxy)phenyl)pyridin-2-yl)acetamido)-1,3,4-thiadiazol-2-yl)butyl)-N-methyl-1H-1,2,3-triazole-4-carboxamide 2,2,2-trifluoroacetate] | < 100 | < 100
24 | O=C(CN1CC(F)(F)C1)Nc1cn(CCCCn2cc(C(=O)NCc3cc(Cl)ccc3F)nn2)nn1 [Example 352, N-[(5-chloro-2-fluorophenyl)methyl]-1-(4-{4-[2-(3,3-difluoroazetidin-1-yl)acetamido]-1H-1,2,3-triazol-1-yl}butyl)-1H-1,2,3-triazole-4-carboxamide] | 500 to 5000 | 100 to 500
25 | CNC(=O)c1cn(CC(F)CCc2nnc(NC(=O)Cc3cc(OC(F)(F)F)ccc3F)s2)nn1 (stereo not drawn) [Example 518, 1-[2-fluoro-4-(5-{2-[2-fluoro-5-(trifluoromethoxy)phenyl]acetamido}-1,3,4-thiadiazol-2-yl)butyl]-N-methyl-1H-1,2,3-triazole-4-carboxamide] | < 100 | < 100
26 | O=C(Cc1ccccn1)Nc1cn(CC(F)CCn2cc(C(=O)NCc3cccc(OC(F)(F)F)c3)nn2)nn1 (stereo not drawn) [Example 347, 1-(3-fluoro-4-(4-(2-(pyridin-2-yl)acetamido)-1H-1,2,3-triazol-1-yl)butyl)-N-(3-(trifluoromethoxy)benzyl)-1H-1,2,3-triazole-4-carboxamide] | < 100 | < 100
27 | CNC(=O)c1cn(CCCCc2ccc(NC(=O)Cc3cccc(C4=CCOCC4)c3)nn2)nn1 [Example 199, 1-(4-(6-(2-(3-(3,6-dihydro-2H-pyran-4-yl)phenyl)acetamido)pyridazin-3-yl)butyl)-N-methyl-1H-1,2,3-triazole-4-carboxamide] | 100 to 500 | < 100
